Experiment in all cases: growth of human tumour cells (NCI), 48 h
Experiment [1] has as its system HL-60.
The test system of experiment [2] is U-251.
The subject of experiment [3] is OVCAR-8.
The test system of experiment [4] is HCC 2998.
The test system of experiment [5] is SF-268.
The subject of experiment [6] is SW-620.
Experiment [7] concerns LOX IMVI.
Experiment [8] deals with NCI-H23.
Experiment [9] has as its system NCI-H226.
Experiment [10] deals with OVCAR-5.
Experiment [11] has as its system TK-10.
Experiment [12] relates to SR.
In experiment [13] the test system is CAKI-1.
For experiment [14], the system named is CCRF-CEM.
Experiment [15] concerns 786-0.
The test system of experiment [16] is SF-295.
The test system of experiment [17] is SK-MEL-28.
The test system of experiment [18] is SN12C.
In experiment [19] the test system is COLO 205.
Experiment [20] has as its system MDA-MB-435.

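In this assay, cells in 96-well plates receive the compound at five concentrations for 48 hours. Endpoints are linearly interpolated between the surrounding concentrations. GI50 marks 50% less growth.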 Active and inactive are the calls of the source. No stated cut-off is given here; in the data, active = GI50 up to about 1.1 µM and inactive = higher. Where only a bound is given, the exact number is not on record here.

`CN1C=C(C(N)=O)C2CC(O)[C@@](NC(=O)CS(N)(=O)=O)(C(=O)O)C2C1` (some centres not stated): the GI50 in [1] was < 0.01 µM (active); in experiment [2], 3.05 µM (inactive); in [3], 5.9 µM (inactive); in experiment [4] it was 18.5 µM (inactive); in experiment [5] it was 3.02 µM (inactive); in [6] it was 3.87 µM (inactive). The GI50 in experiment [7] is 2.37 µM (inactive); in experiment [8], 1.86 µM (inactive); in experiment [9], 2.68 µM (inactive); in experiment [10], 2.42 µM (inactive); in experiment [11], 3.92 µM (inactive); in [12], 2.02 µM (inactive). Besides, the GI50 in experiment [13] was 5.46 µM (inactive); in [14], 9.33 µM (inactive); in experiment [15], 3.61 µM (inactive); in experiment [16] it was 2.75 µM (inactive); in experiment [17] it was 2.43 µM (inactive); in [18], 18.2 µM (inactive). The GI50 in experiment [19] was 14.1 µM (inactive).

For the compound `O=C(O)C(CS)NCc1c2ccccc2nc2ccccc12` (configuration not stated), the GI50 in experiment [1] was 22.3 µM (inactive); in [2] it was 92 µM (inactive); in experiment [3], 32.6 µM (inactive); in experiment [4] it was 40.6 µM (inactive); in experiment [5], 40.7 µM (inactive); in [6], 37.4 µM (inactive). For the same compound, the GI50 in [7] is 30.5 µM (inactive); in [8], 37.8 µM (inactive); in [9], > 100 µM (inactive); in experiment [10], > 100 µM (inactive); in [11], 78.2 µM (inactive); in experiment [12], 19.5 µM (inactive). For the same compound, the GI50 in experiment [13] was 34.4 µM (inactive); in [14], 19 µM (inactive); in experiment [15], 55.2 µM (inactive); in experiment [16], 43.2 µM (inactive); in [17] it was 72.6 µM (inactive); in experiment [18], 34.2 µM (inactive). In addition, in [19], the GI50 is > 100 µM (inactive).

`Cc1cc(C)[n+](CCOc2ccc(/C(=C(/Cl)c3ccccc3)c3ccccc3)cc2)c(C)c1.[O-][Cl+3]([O-])([O-])[O-]`: the GI50 in experiment [1] is 0.215 µM (active); in experiment [2] it was 0.685 µM (active); in experiment [3] it was 1.33 µM (inactive); in [4], 0.701 µM (active); in experiment [5], 0.933 µM (active); in experiment [6] it was 0.891 µM (active). For the same compound, the GI50 in experiment [7] was 0.778 µM (active); in [8] it was 0.869 µM (active); in experiment [9] it was 1.32 µM (inactive); in [10], 2.69 µM (inactive); in experiment [11], 3.52 µM (inactive); in experiment [12] it was 0.804 µM (active). The GI50 in experiment [13] is 4.49 µM (inactive); in [14], 0.521 µM (active); in [15], 2.45 µM (inactive); in experiment [16], 2.47 µM (inactive); in experiment [17], 1.32 µM (inactive); in experiment [18], 0.774 µM (active). Moreover, the GI50 in experiment [19] is 0.292 µM (active).

Take `COc1ccccc1NC(=O)C1=C(C)NC(C)=C(C(=O)Nc2ccccc2OC)C1c1ccccc1OC`: the GI50 is 75.2 µM (inactive) in experiment [1]; > 100 µM (inactive) in [2]; > 100 µM (inactive) in [3]; > 100 µM (inactive) in experiment [4]; > 100 µM (inactive) in experiment [5]; > 100 µM (inactive) in experiment [6]. Moreover, the GI50 in experiment [7] is > 100 µM (inactive); in [8], > 100 µM (inactive); in experiment [9] it was > 100 µM (inactive); in experiment [10], > 100 µM (inactive); in [11] it was > 100 µM (inactive); in experiment [12], 83.2 µM (inactive). In addition, the GI50 in experiment [13], in [14], in [15], in [16], in experiment [17] and in experiment [18] was > 100 µM (inactive) in each case. In addition, in [19], the GI50 is 36.9 µM (inactive).

`COc1cc2c(oc(=O)c3cc4ccoc4c(OC)c32)c2cccc(O)c12`: the GI50 in [1], in experiment [2], in experiment [3], in [4], in experiment [5] and in experiment [6] was > 100 µM (inactive) each time. The GI50 in [7], in experiment [8], in experiment [9], in experiment [10], in experiment [11] and in experiment [12] was > 100 µM (inactive) each time. Besides, the GI50 in experiment [13], in experiment [14], in [15], in experiment [16], in experiment [17] and in experiment [18] was > 100 µM (inactive) throughout. The GI50 in experiment [19] was > 100 µM (inactive).

For `Cc1c(/N=C/C=C/c2ccccc2)c(=O)n(-c2ccccc2)n1C`, the GI50 in experiment [1] was 16.1 µM (inactive); in experiment [20], 34.4 µM (inactive); in [2] it was 15.6 µM (inactive); in [3], 17.4 µM (inactive); in experiment [5], 33.6 µM (inactive); in experiment [6], 23 µM (inactive). Further, the GI50 was 4.86 µM (inactive) in [7]; 23.4 µM (inactive) in experiment [8]; 13.6 µM (inactive) in experiment [9]; 58.9 µM (inactive) in [10]; 30.2 µM (inactive) in experiment [11]; 34.7 µM (inactive) in [13]. Also, the GI50 in experiment [14] was 6.87 µM (inactive); in experiment [16], 14.4 µM (inactive); in experiment [17], 14.6 µM (inactive); in experiment [18], 16.1 µM (inactive); in experiment [19], > 100 µM (inactive).

Take `Cc1cc(-c2c(Br)cc(C(=O)O)n2C)on1`: the GI50 in experiment [1], in experiment [20], in [2], in experiment [3], in [5] and in experiment [6] was > 100 µM (inactive) each time. The GI50 in experiment [7], in experiment [8], in experiment [9], in experiment [10], in experiment [11] and in experiment [13] was > 100 µM (inactive) in each case. For the same compound, the GI50 in [14], in experiment [15], in experiment [16], in experiment [17], in experiment [18] and in experiment [19] was > 100 µM (inactive) each time.

As for `O=C(c1ccco1)N(C(=O)N1CCC(c2ccccc2)CC1)c1ccccc1`, the GI50 in experiment [1] was 19.3 µM (inactive); in [20], 35 µM (inactive); in [2], 76.2 µM (inactive); in experiment [3], 40.7 µM (inactive); in experiment [5] it was 99.3 µM (inactive); in experiment [6] it was > 100 µM (inactive). The GI50 in experiment [7] was 59.7 µM (inactive); in experiment [8], 45.7 µM (inactive); in experiment [9], 31.7 µM (inactive); in [10], > 100 µM (inactive); in [11] it was 55.3 µM (inactive); in experiment [13], > 100 µM (inactive). In addition, the GI50 in experiment [14] was 26.5 µM (inactive); in experiment [15], 92.9 µM (inactive); in [17], 62.7 µM (inactive); in experiment [18] it was > 100 µM (inactive); in experiment [19], 39.7 µM (inactive).

The values are drawn from ChEMBL document CHEMBL1201862, “PubChem BioAssay data set” (2004).
